“And” between values parts separate entries of the source, which are not always exact repeats. Equal values may be shown once. Where a name gives a salt, the structure may show the parent alone. Read-outs that look alike come from different tables or passages of the source.
Experiments:
rat VMAT2 = rat VMAT2 (Rattus norvegicus, UniProt Q01827); experiment: FFN206 uptake assay in transfected Hek293 cells; conditions: for VMAT2-specific FFN206 uptake relative to DMSO (=1), replicate samples: Fig. 2a source data, 25 μM compound
Sequence of rat VMAT2 (Q01827 whole entry): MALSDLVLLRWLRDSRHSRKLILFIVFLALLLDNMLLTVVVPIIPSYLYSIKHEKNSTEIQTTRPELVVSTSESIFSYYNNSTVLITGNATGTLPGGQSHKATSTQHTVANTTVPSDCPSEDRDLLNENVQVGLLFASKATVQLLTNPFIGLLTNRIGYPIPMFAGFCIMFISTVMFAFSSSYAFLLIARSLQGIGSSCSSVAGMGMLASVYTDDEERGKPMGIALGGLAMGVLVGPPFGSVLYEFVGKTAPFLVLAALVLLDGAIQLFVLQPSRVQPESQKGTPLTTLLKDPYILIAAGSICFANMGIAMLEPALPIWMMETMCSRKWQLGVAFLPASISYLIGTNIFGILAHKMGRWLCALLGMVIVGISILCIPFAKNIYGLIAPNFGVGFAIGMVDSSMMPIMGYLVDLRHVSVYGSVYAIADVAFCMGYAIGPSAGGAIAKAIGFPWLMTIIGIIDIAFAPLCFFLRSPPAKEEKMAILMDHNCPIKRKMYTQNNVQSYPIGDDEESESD

rat VMAT2-His = target: T1, rat VMAT2-His (Rattus norvegicus, UniProt Q01827); experiment: Differential scanning fluorimetry (DSF) with CPM dye: change of melting temperature of purified VMAT2; type: binding; conditions: for ΔTm at 12 µM: compound 0,12 µM; for ΔTm at 37 µM: compound 0,37 µM; for ΔTm at 270 µM: compound 270 µM
T1 construct: The ORF of rat VMAT2 was subcloned into a pFastBac vector; His; made in house; host or cells: Sf9 insect cells (baculovirus)
T1 sequence (Q01827 whole entry): as above
Procedure: To screen purified VMAT2 by DSF we expressed the rat VMAT2 protein, as VMAT2-His, in SF9 insect cells using the baculovirus expression system. The transporter was solubilized and purified in n-Dodecyl-β-D-maltoside (DDM)/cholesterol hemisuccinate (CHS) micelles by immobilized metal affinity chromatography (IMAC) and size exclusion chromatography (SEC). […] Screening was performed using DSF and the thiol-reactive dye 7-diethylamino-3-(4-maleimidophenyl)-4-methylcoumarin (CPM), an approach that monitors changes to the protein melting temperature (Tm) upon compound binding. Using CPM or other dyes, DSF-based assays have successfully been used in molecular-based screenings[34],[35]. […] DSF screening was performed in 384 well plates using the thiol-sensing dye 7-diethylamino-3-(4-maleimidophenyl)-4-methylcoumarin (CPM) (Merck). […] Protein melting curves were determined using a LightCycler 480 ii RT-PCR system (Roche), with a temperature ramp increasing from 25 to 95 °C at a rate of 2 °C/min. Data analysis was performed using an in-house software that automatically determines the protein midpoint melting temperature (Tm) based on the second derivative of the melting curves or using the HTSDSF explorer as described in ref. [58]. […] 6 μl of this mix was dispensed to each well of 384 well plates using a Multidrop™ Combi Reagent Dispenser (Thermo Scientific). […] All initial hits were then subjected to an initial validation in triplicates with a compound concentration of 200 μM and a ΔTm > 5× the standard deviation (SD) cut off. […] Processing of the data from the primary screening and the concentration-dependent validation was performed as reported.

VMAT2 [1] = target: T2, VMAT2 (Rattus norvegicus, UniProt Q01827); conditions: 50 µM
T2 sequence (Q01827 whole entry): as above
Procedure: (§1) We preincubated cells expressing VMAT2 with 50 μM compounds and measured [^3H]-DTBZ binding (5 nM) to the sample (Fig. 3a). […] Hek293 cells were grown and transfected with pcDNA3.1 VMAT2-His as described above. Two days after transfection, cells were harvested, washed and transferred to 96 well MultiScreen FB filter plates (Millipore). […] Cells were washed 3 times with ice cold PBS and 50 µl Ultima Gold LLL (PerkinElmer) was added to each well. […] After a 20 min incubation at 37 °C, cells were washed and [^3H] scintillation counting was performed as described above.

VMAT2 [2] = target: T2, VMAT2; experiment: [3H]-DTBZ competition assay in Hek293 cells expressing VMAT2; conditions: 50 μM compound;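 further: HEK293 cells transfected with VMAT2, pretreated 30 min with compound, then given 5 nM [3H]-DTBZ for 20 min at 37 °C, bound label read by scintillation counting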
Procedure: as §1

[3] = Table 1, DSF screening, mean ± SD of triplicates
[4] = Table S2 dose response, read-out: ΔTm
[5] = Table S2 dose response, compound 10 µM, read-out: ΔTm
[6] = Table S2 dose response, compound 30 µM, read-out: ΔTm
[7] = Table S2 dose response, compound 90 µM, read-out: ΔTm
[8] = Table S2 dose response, compound 1,11 µM, read-out: ΔTm
[9] = Table S2 dose response, compound 3,33 µM, read-out: ΔTm

SMILES	IC50 (rat VMAT2) [µM]	ΔTm (rat VMAT2-His; [3]) [oC]	ΔTm at 12 µM (rat VMAT2-His; [4]) [°C]	ΔTm at 37 µM (rat VMAT2-His; [4]) [°C]	ΔTm at 10 µM (rat VMAT2-His; [5]) [°C]	ΔTm at 30 µM (rat VMAT2-His; [6]) [°C]	ΔTm at 90 µM (rat VMAT2-His; [7]) [°C]	ΔTm at 270 µM (rat VMAT2-His; [4]) [°C]	effect on [3H]-DTBZ binding compared with DMSO control (one-way ANOVA, p < 0.001) (VMAT2 [2])	activity (VMAT2 [1]; hek293 cells) [%]	further results
CCCC(=O)Nc1ccc(OCC(O)CNC(C)C)c(C(C)=O)c1 (stereo not drawn) [Acebutolol, Acebutolol hydrochloride]	> 10	2.14 ± 0.05	0.2	0.03	0.2	0.31	0.33	0.9			IC50 (rat VMAT2; read-out: IC50, rat VMAT2, Table S1, substrate uptake assays in transfected Hek293 cells): < 10 µM; ΔTm at 11 µM (rat VMAT2-His; [8]): 0.3 °C; ΔTm at 33 µM (rat VMAT2-His; [9]): 0.03 °C
CC(C)NCC(O)COc1ccc(CCOCC2CC2)cc1 (stereo not drawn) [Betaxolol, Betaxolol hydrochloride]	6.85 ± 3.62	1.98 ± 0.15	-0.32	-0.34	0.12	0.01	0.2	1.16			ΔTm at 11 µM (rat VMAT2-His; [8]): 0.01 °C; ΔTm at 33 µM (rat VMAT2-His; [9]): 0.01 °C
OC(CCN1CCCCC1)(c1ccccc1)C1CC2C=CC1C2 (stereo not drawn) [Biperiden, Biperiden hydrochloride]		1.32 ± 0.22	0.2	0.33	1.11	1.6	0.9	2.12	no statistically significant effect		activity (VMAT2 [1]): 79.9 ± 19.1%; VMAT2-specific FFN206 uptake relative to DMSO (=1), replicate samples (rat VMAT2): 0.4909 and 0.5029 and 0.6058 and 0.5946; inhibition at 25 µM (rat VMAT2; HEK293, read-out: inhibitory effect on VMAT2 activity): ≤ 50%; ΔTm (rat VMAT2-His; [8]): 0.45 °C; ΔTm (rat VMAT2-His; [9]): 0.56 °C
CC(C)NCC(O)COc1ccc(COCCOC(C)C)cc1 (stereo not drawn) [Bisoprolol]	3.17 ± 0.895	1.49 ± 0.05									
COc1ccccc1OCCNCC(O)COc1cccc2[nH]c3ccccc3c12 (stereo not drawn) [Carvedilol]	0.185 ± 0.157	−2.54 ± 0.19							statistically significantly effect	3.22 ± 3.37	FFN206 uptake relative to no compound (=1), replicate samples (rat VMAT2; Fig. 2b/2c source data, compound 0.0152 μM, listed as Carvediol): 0.766 and 0.8971 and 0.7075 and 0.9947; FFN206 uptake relative to no compound (=1), replicate samples (rat VMAT2; Fig. 2b/2c source data, compound 0.1372 μM, listed as Carvediol): 0.4929 and 0.5853 and 0.5773 and 0.7378; FFN206 uptake relative to no compound (=1), replicate samples (rat VMAT2; Fig. 2b/2c source data, compound 0.4115 μM, listed as Carvediol): 0.3687 and 0.2376 and 0.3168 and 0.3398; FFN206 uptake relative to no compound (=1), replicate samples (rat VMAT2; Fig. 2b/2c source data, compound 1.2346 μM, listed as Carvediol): 0.1087 and 0.07344; FFN206 uptake relative to no compound (=1), replicate samples (rat VMAT2; Fig. 2b/2c source data, compound 3.7037 μM, listed as Carvediol): 0.1063 and 0.05759 and 0.1334 and 0.2157; FFN206 uptake relative to no compound (=1), replicate samples (rat VMAT2; Fig. 2b/2c source data, compound 11.1111 μM, listed as Carvediol): 0.1084 and -0.01428 and 0.1171 and 0.3099; FFN206 uptake relative to no compound (=1), replicate samples (rat VMAT2; Fig. 2b/2c source data, compound 100.0000 μM, listed as Carvediol): -0.01159 and -0.1032 and -0.03855; FFN206 uptake relative to no compound (=1), replicate samples (rat VMAT2; Fig. 2c source data, compound 0.0017 μM, listed as Carvediol): 0.7452 and 0.9945 and 0.9725 and 0.9441
CCN(CC)CCCC(C)Nc1ccnc2cc(Cl)ccc12 (stereo not drawn) [Chloroquine]	> 10								no statistically significant effect	85.1 ± 11.3	
CC(C)(C)NCC(O)c1cc(Cl)c(N)c(Cl)c1 (stereo not drawn) [Clenbuterol]	> 10	2.19 ± 0.13									
CC(C)n1c(/C=C/C(O)CC(O)CC(=O)O)c(-c2ccc(F)cc2)c2ccccc21 (stereo not drawn) [Fluvastatin, Fluvastatin sodium salt]		4.98 ± 0.17	0.62	0.66	0.87	1.05	1.39	2.74	no statistically significant effect	80.2 ± 34.8	VMAT2-specific FFN206 uptake relative to DMSO (=1), replicate samples (rat VMAT2): 0.09585 and -0.01946 and 0.03446; ΔTm at 11 µM (rat VMAT2-His; [8]): 0.71 °C; ΔTm at 33 µM (rat VMAT2-His; [9]): 0.66 °C
CCc1cc2c(cc1CC)CC(NC[C@H](O)c1ccc(O)c3[nH]c(=O)ccc13)C2 [Indacaterol]	0.372 ± 0.195	−1.26 ± 0.15							statistically significantly effect	31.6 ± 4.76	FFN206 uptake relative to no compound (=1), replicate samples (rat VMAT2; Fig. 2b/2c source data, compound 0.0152 μM, listed as Indacterol): 1.046 and 0.9873 and 0.9954 and 1.047; FFN206 uptake relative to no compound (=1), replicate samples (rat VMAT2; Fig. 2b/2c source data, compound 0.1372 μM, listed as Indacterol): 0.9052 and 0.9503 and 0.5975 and 0.7395; FFN206 uptake relative to no compound (=1), replicate samples (rat VMAT2; Fig. 2b/2c source data, compound 0.4115 μM, listed as Indacterol): 0.655 and 0.7802 and 0.5475 and 0.5896; FFN206 uptake relative to no compound (=1), replicate samples (rat VMAT2; Fig. 2b/2c source data, compound 1.2346 μM, listed as Indacterol): 0.389 and 0.3824 and 0.2984 and 0.2513; FFN206 uptake relative to no compound (=1), replicate samples (rat VMAT2; Fig. 2b/2c source data, compound 3.7037 μM, listed as Indacterol): 0.2198 and 0.2721 and 0.1271 and 0.01615; FFN206 uptake relative to no compound (=1), replicate samples (rat VMAT2; Fig. 2b/2c source data, compound 11.1111 μM, listed as Indacterol): 0.3236 and 0.15 and 0.08791 and -0.0508; FFN206 uptake relative to no compound (=1), replicate samples (rat VMAT2; Fig. 2b/2c source data, compound 100.0000 μM, listed as Indacterol): 0.1623 and 0.1126 and 0.06583 and 0.01394; FFN206 uptake relative to no compound (=1), replicate samples (rat VMAT2; Fig. 2c source data, compound 0.0017 μM, listed as Indacterol): 0.9404 and 1.104 and 0.8827 and 0.8866
COc1ccc(CN2CCN(C(c3ccc(F)cc3)c3ccc(F)cc3)CC2)c(OC)c1OC [Lomerizine, Lomerizine hydrochloride]	3.9 ± 1.69	−7.51 ± 0.04	-0.81	-0.99	-2.21	-1.43	-2.04	-5.36	no statistically significant effect	113 ± 23.2	VMAT2-specific FFN206 uptake relative to DMSO (=1), replicate samples (rat VMAT2): 0.1198 and 0.07933 and 0.1667 and 0.07626; ΔTm at 11 µM (rat VMAT2-His; [8]): -1.46 °C; ΔTm at 33 µM (rat VMAT2-His; [9]): -1.47 °C
C=CCOc1ccccc1OCC(O)CNC(C)C (stereo not drawn) [Oxprenolol, Oxprenolol hydrochloride]	6.55 ± 3.49										
CC(C)NCC(O)c1ccc2ccccc2c1 (stereo not drawn) [Pronethalol, Pronethalol hydrochloride]	1.01 ± 0.3										ΔTm (rat VMAT2-His; 10 µM): 0,71 oC; ΔTm (rat VMAT2-His; 11 µM): 0,70 oC; ΔTm (rat VMAT2-His; 12 µM): -0,02 oC; ΔTm (rat VMAT2-His; 30 µM): 1,83 oC; ΔTm (rat VMAT2-His; 33 µM): 0,48 oC; ΔTm (rat VMAT2-His; 37 µM): 0,21 oC; ΔTm (rat VMAT2-His; 90 µM): 2,42 oC; ΔTm (rat VMAT2-His; 270 µM): 3,75 oC
CCCNCC(O)COc1ccccc1C(=O)CCc1ccccc1 (stereo not drawn) [Propafenone, Propafenone hydrochloride]		4.53 ± 0.18		0.99	1.65	2.63	3.49	4.45	statistically significantly effect		activity (VMAT2 [1]): 60.7 ± 20.8%; ΔTm (rat VMAT2-His; [8]): 1.22 °C; ΔTm (rat VMAT2-His; [9]): 1.22 °C
OCc1cc([C@@H](O)CNCCCCCCOCCOCc2c(Cl)cccc2Cl)ccc1O [Vilanterol]	0.047 ± 0.014										FFN206 uptake relative to no compound (=1), replicate samples (rat VMAT2; Fig. 2b/2c source data, compound 0.0152 μM): 0.9388 and 0.9839 and 0.9625 and 0.9806; FFN206 uptake relative to no compound (=1), replicate samples (rat VMAT2; Fig. 2b/2c source data, compound 0.1372 μM): 0.349 and 0.2794 and 0.2127 and 0.5464; FFN206 uptake relative to no compound (=1), replicate samples (rat VMAT2; Fig. 2b/2c source data, compound 0.4115 μM): 0.2586 and 0.1616 and 0.1258 and 0.3046; FFN206 uptake relative to no compound (=1), replicate samples (rat VMAT2; Fig. 2b/2c source data, compound 1.2346 μM): 0.2328 and 0.1144 and 0.1141 and 0.2682; FFN206 uptake relative to no compound (=1), replicate samples (rat VMAT2; Fig. 2b/2c source data, compound 3.7037 μM): 0.255 and 0.1011 and 0.07806 and 0.2392; FFN206 uptake relative to no compound (=1), replicate samples (rat VMAT2; Fig. 2b/2c source data, compound 11.1111 μM): 0.2251 and 0.08176 and 0.1003 and 0.2777; FFN206 uptake relative to no compound (=1), replicate samples (rat VMAT2; Fig. 2c source data, compound 0.0017 μM): 1.315 and 1.032 and 1.041 and 1.083
Cl.Cl.OCCN1CCN(CC/C=C2/c3ccccc3Sc3ccc(Cl)cc32)CC1 [Zuclopenthixol dihydrochloride]											ΔTm (rat VMAT2-His; 11 µM): -0,58 oC; ΔTm (rat VMAT2-His; 12 µM): -0,36 oC; ΔTm (rat VMAT2-His; 33 µM): 0,03 oC; ΔTm (rat VMAT2-His; 37 µM): -0,44 oC; ΔTm (rat VMAT2-His; 270 µM): -1,51 oC; ΔTm (rat VMAT2-His; Table S2 dose response, compound 10 µM): -0,07 oC; ΔTm (rat VMAT2-His; Table S2 dose response, compound 30 µM): -1,80 oC; ΔTm (rat VMAT2-His; Table S2 dose response, compound 90 µM): -0,79 oC
